Assays:
Solubility = type: physicochemical
[1] = Photochemical and thermal stability; type: physicochemical

Row | Compound | solubility in aqueous solution (Solubility) | photochemical and thermal stability [1]
1 | O=S(=O)([O-])CCC[S-].O=S(=O)([O-])CCC[S-].[Ag+].[Na+].[Na+].[Na+] [Na^+3[Ag^+(MPS^2−)2]^3−] | very high solubility | –
2 | O=S(=O)([O-])c1ccc2[nH]c([S-])nc2c1.O=S(=O)([O-])c1ccc2[nH]c([S-])nc2c1.[Ag+].[Na+].[Na+].[Na+] [Na^+3[Ag^+(X^2−)2]^3−] | very high solubility | thermally and photochemically stable
3 | O=C([O-])c1ccccc1[S-].O=C([O-])c1ccccc1[S-].[Ag+].[Na+].[Na+].[Na+] [Na^+3[Ag^+(TS^2−)2]^3−] | very high solubility | thermally and photochemically stable

Source: patent US20230240302A1, “Antimicrobial silver coordination complexes” (Penta Science Industries Holding B.V., priority 2020, published 2023)
